Assay results reported in paper PMC6130598, “Isolation, characterization, and in silico, in vitro and in vivo antiulcer studies of isoimperatorin crystallized from Ostericum koreanum” (Pharmaceutical Biology, 2016).

Target: jack bean urease (Canavalia ensiformis, UniProt P07374)
Experiment: colorimetric urease inhibition assay (phenol/hypochlorite ammonia detection, […] nm)
Format: biochemical

Chain of jack bean urease (P07374 whole entry, looked up): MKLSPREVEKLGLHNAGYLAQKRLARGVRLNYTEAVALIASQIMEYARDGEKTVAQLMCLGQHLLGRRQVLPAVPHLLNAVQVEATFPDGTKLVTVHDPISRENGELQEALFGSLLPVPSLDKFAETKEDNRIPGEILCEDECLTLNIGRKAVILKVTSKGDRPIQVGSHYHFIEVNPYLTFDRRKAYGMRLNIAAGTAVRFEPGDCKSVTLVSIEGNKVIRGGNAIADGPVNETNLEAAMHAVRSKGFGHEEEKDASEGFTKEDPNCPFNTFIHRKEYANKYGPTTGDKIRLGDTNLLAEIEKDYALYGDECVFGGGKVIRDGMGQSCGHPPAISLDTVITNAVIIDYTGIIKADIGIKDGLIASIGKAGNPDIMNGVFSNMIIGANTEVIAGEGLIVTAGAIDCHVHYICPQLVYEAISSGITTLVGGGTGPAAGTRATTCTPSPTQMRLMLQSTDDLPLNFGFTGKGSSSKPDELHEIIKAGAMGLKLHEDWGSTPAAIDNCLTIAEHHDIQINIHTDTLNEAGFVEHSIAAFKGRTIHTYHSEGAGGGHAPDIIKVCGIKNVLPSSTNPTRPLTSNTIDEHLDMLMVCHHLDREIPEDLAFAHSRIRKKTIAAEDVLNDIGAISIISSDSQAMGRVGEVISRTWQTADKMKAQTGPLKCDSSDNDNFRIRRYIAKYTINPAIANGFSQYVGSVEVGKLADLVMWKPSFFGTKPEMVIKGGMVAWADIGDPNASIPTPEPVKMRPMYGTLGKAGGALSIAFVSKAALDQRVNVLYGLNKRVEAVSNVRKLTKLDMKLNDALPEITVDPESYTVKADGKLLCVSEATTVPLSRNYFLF

CC(C)=CCOc1c2ccoc2cc2oc(=O)ccc12 [isoimperatorin]
IC50: 36.4 µM

NC(N)=S [thiourea]
IC50: 33.6 µM
